The subject of one test is Erk1/2 phosphorylation. The test is described as follows: Klk6-PAR signaling assay, Erk1/2 phosphorylation by Western blot in Oli-neu. Format: cell-based, mouse. The note with it: treatment alone; Klk6 10 minutes. How it is done:
Klk6-PAR signaling assays: To examine the ability of Klk6 to mediate PAR-dependent signaling in oligodendrocytes, Oli-neu oligodendroglia (3.5×10^5 cells/well in six-well plates) were treated with Klk6 (150 nM) for 10 min, followed by protein harvest. Cell lysates were analyzed for phosphorylated or nonphosphorylated Erk1/2 by Western blot. In experiments to determine the role of PARs in Klk6 signaling, Oli-neu were preincubated with the PAR1 antagonist, SCH79797 dihydrochloride (50 nM, Tocris Biosciences, Minneapolis, MN) for 30 minutes prior to Klk6 application.
Western blot: Oli-neu lysates were obtained using a buffer containing 1% NP40, 0.5% deoxycholate, 10% glycerol, and 20 mM Tris base and separated on SDS-polyacrylamide gels prior to transfer. Membranes were blocked with 5% milk in TBS-T and incubated overnight with primary antibodies including rabbit anti-phospho-Erk1/2 (1:1,000, Cell Signaling Technology, Danvers, MA), followed with a species-appropriate horseradish peroxidase-conjugated secondary antibody (1:20,000 GE Healthcare Unlimited, UK). Signal was detected using Chemiluminescence Supersignal Pico (Pierce, Rockford, IL). Western blots were repeated three times from independent cultures, scanned, and quantified by densitometry (BioRad Quantity One 1-D Analysis Software, BioRad, Hercules, CA). Erk1/2 signal was normalized to its nonphosphorylated form. Equal loading was verified by reprobing blots for […] (Novus Biologicals, Littleton, CO).
In general terms: Immunoblotting shows a protein as a band on a membrane.

Test [1] deals with primary oligodendrocyte cultures (3 DIV). The test is described as follows: ATP toxicity assay in oligodendrocytes. The format is cell-based, mouse. As for the experimental part: PAR agonist-induced changes in oligodendrocyte morphology: To determine the effects of recombinant Klk6, Klk1, thrombin, or PAR1-AP on oligodendroglia, 3 DIV PAR1^+/+, PAR1^−/−, and PAR2^−/− oligodendrocytes, PAR1^+/+ OPCs immediately post purification, or Oli-neu cells were grown on cover slips in the presence of agonists for 24 h. For ATP toxicity assays, oligodendrocytes were incubated with ATP (50 μM, Sigma Aldrich) in the presence of Klk6 or Klk1. Following each treatment, oligodendrocyte and OPC cultures were immunolabeled for O4 to visualize the cell body and processes. Oli-neu processes were visualized by staining the actin cytoskeleton with Cy3-conjugated Phalloidin.
To assess the effects of Klk6 and other PAR1 agonists on oligodendrocyte morphology and process stability, 20× digital micrographs were overlaid with a 780 μm^2 grid and ImageJ software 1.45r (National Institutes of Health) used to record cell number and the number of processes crossing horizontal grid lines (Scarisbrick et al., Brain 125:1283-1296, 2002). Data are expressed as the mean number of O4^+ or Phalloidin^+ processes per DAPI^+ cell (±SEM).
The extent of oligodendrocyte morphological differentiation was determined by scoring O4^+/DAPI^+ oligodendrocyte morphology as simple (only primary processes, no secondary branching), incomplete (one or more primary process without secondary branching), complete (all primary processes with secondary branching), or membrane (complete secondary branching with membrane sheets) (Huang et al., Nat Neurosci 14:45-53, 2011). The mean number of cells in each morphology class was determined across treatments and expressed as percent of total O4^+/DAPI^+ cells.
Changes in OPC or oligodendrocyte morphology were quantified from five microscopic fields per cover slip with the mean and SEM calculated across three cover slips per experiment. Each experiment was repeated at least twice using independent cultures. Analysis of oligodendrocyte morphology was performed without knowledge of treatment groups.

The next test deals with spinal cord white matter. In words: Microinjection of Klk6 or PAR1-AP into spinal cord dorsal column white matter. Format: in vivo, mouse. As for the experimental part:
In vivo effects of excess Klk6 or PAR1-AP in spinal cord white matter: All mice were administered Buprenorphine preoperatively (Buprenex, 0.03 mg/kg, intraperitoneal (i.p.), Reckitt Benckise, Slough, UK) and every 12 hours for the first 48 hours following surgery. Surgical anesthesia was induced in age-matched male C57BL6/J or PAR12/2 mice using Ketamine (Ketaset, 80 mg/kg, Fort Dodge Animal Health, Fort Dodge, IA) and Xylazine i.p. (Anased, 10 mg/kg, Lloyd Laboratories, Shenendoah, IA). A thoracic (T11-T12) laminectomy was performed and a 30-40 μm glass capillary needle inserted into a 10 μL gas-tight Hamilton Syringe (Hamilton Company, Reno, NV) used to deliver 2 μL of Klk6 (0.01 μg/μL (300 nM)), PAR1-AP (0.01 μg/μL (100 μM)), or vehicle (physiologic saline) alone (n=3 for each treatment group) using a stereotaxic injection system (Stoelting, Wood Dale, IL). Under micromanipulator control (MyNeurolab, Richmond, IL), the needle was inserted 350 μm into the dorsal column, infusion carried out over 5 minutes and the needle left in place for 3 minutes to avoid backflow. All mice received 0.5 mL of sterile saline and Baytril (2.5 mg/kg, Bayer Healthcare, Shawnee Mission, KS) i.p. postoperatively.
Seventy-two hours after microinjection of PAR1 agonists, mice were deeply anesthetized with Nembutal (50 mg/kg, i.p., Lundbeck, Deerfield, IL) and perfused transcardially with 4% PFA. Two millimeter transverse spinal cord segments encompassing the microinjection epicenter as well as 2 mm rostral and caudal were embedded in paraffin. Six micrometer sections were cut and slide mounted serially. Every sixth slide was stained with hematoxylin and eosin (H&E). Adjacent sections were immunostained for oligodendroglia using an antibody specific for CC-1/APC (ab16794, AbCam, Cambridge, MA), myelin using an antibody recognizing MBP (MAB386, Millipore, Bedford, MA), and standard avidin-biotin immunoperoxidase techniques (Scarisbrick et al., J Comp Neurol 431:347-361, 2001; and Scarisbrick et al. 2012b, supra). Stained sections were cover slipped with Permount (Fisher Scientific, Pittsburgh, PA) containing 2 mg/mL bisbenzamide to visualize nuclei (Sigma Aldrich).
Measurements of white matter lesion area were based on signs of pathology (vacuolation, tissue destruction, hemorrhage) in 20× digital images of H&E stained sections. The largest lesion area in each animal was used to determine mean maximal lesion area and expressed in μm^2. The integrity of MBP immunoreactivity was assessed in sections for 2,000 μm rostrocaudal to the microinjection site. The number of dorsal column CC-1^+/DAPI^+ cells was quantified in sections across […] of spinal cord extending rostrocaudal to the epicenter. The mean area of dorsal column white matter in the intact spinal cord was approximately […]. To put the number of CC-1^+ oligodendrocytes into context, the mean number CC-1V cells per mm^2 was evaluated as the mean number per […]. Sections stained for CC-1 were also stained for GFAP (Sigma Aldrich), allowing for the exclusion of CC-1^+ astrocytes; however, no examples of double labeled cells were observed.

[2] abbreviates: co-application with ATP 50 μM, Klk6 150 nM.

On to “Klk6: Recombinant murine kallikrein-related peptidase 6 expressed using a baculovirus system”, for which, in the test on Erk1/2 phosphorylation, the Erk1/2 phosphorylation entry was “nearly four-fold increase”. For the same substance, the ATP-induced oligodendrocyte loss result in test [1] (co-application with ATP) is “significant exacerbation”. Moreover, in test [1] (co-application with ATP 50 μM), the “number of processes per oligodendrocyte” value is given as “five-fold reduction”, the “oligodendrocytes with membrane morphology” value was “complete loss” and the “oligodendroglia with mature complete morphology” value is recorded as “complete loss”. For the same substance, in test [1] (setting [2]), the “increase in oligodendrocytes with incomplete morphologies compared with vehicle or ATP alone” value is on record as “greater than 40%” and the “percentage of oligodendrocytes with simple morphology relative to ATP alone” value is recorded as “further increasing”. Further, in the test on spinal cord white matter (PAR1+/+ mice), the “maximal lesion area relative to saline alone” value is recorded as “enhanced”, the “reduction of CC-1+ cells in dorsal column white matter” value is ~15% and the “rostrocaudal white matter pathology versus saline alone” value is listed as “two-fold greater”. Further, the “loss of MBP-immunoreactivity relative to saline alone” value in the test on spinal cord white matter (PAR1+/+ mice, 72 hours) is ~45%. For the same substance, the “white matter surrounding injection site with vacuolating myelinopathy, tissue destruction and hemorrhage” value in the test on spinal cord white matter (PAR1+/+ mice, 0.02 μg total, 72 hours) is reported as “over 1,200 μm”. Further, the “rostrocaudal white matter pathology” value with spinal cord white matter (PAR1+/+ mice, 0.02 μg, 72 hours) is on record as 1,242.0±95.3 μm. For the same substance, in the test with spinal cord white matter (PAR1-/- mice), the white matter pathology result is “largely absent”.

The record behind these values is patent US11813264B2, “PAR1 modulation to alter myelination” (Mayo Foundation for Medical Education and Research, priority 2014, dated 2023).
